In the assay the test system is Male C57/BL6J mice. The assay is described as follows: Mouse oGTT (Oral Glucose Tolerance Test). The following applies: 2 h, fasted 16 to 17 hours, compound 10 mg/kg orally 30 minutes before oral glucose load, AUC from 5 minutes before to 120 minutes after glucose, read-out: percentage decrease in plasma glucose AUC (%) compared with the negative control group. Type of assay: in vivo. As to the method:
Mouse oGTT (Oral Glucose Tolerance Test)
A dosing preparation (1 mg/mL of each compound) was produced by suspending in a 0.5 w/v % methyl cellulose solution and then grinding in an agate mortar. Male C57/BL6J mice (Charles River Laboratories Japan, Inc.) were purchased at 6 to 8 weeks of age, and then used at 9 to 13 weeks of age. The mice were fasted from the hours of 17:00 to 18:00 on one day before the test day, and the test was started after 16 to 17 hours-fasting. Five mice were used for each group. Before dosing a compound, blood was collected from the tail vein. Thereafter, a suspension of the compound was orally administered at a dosage of 10 mg/kg. The 0.5 w/v % methyl cellulose solution was administered to a negative control group. Twenty five minutes after dosing the compound, blood was collected from the tail vein, and then thirty minutes after dosing the compound, 30 w/v % glucose solution was orally administered at a volume of 10 mL/kg. Blood was collected from the tail vein 15, 30, 60 and 120 minutes after the glucose administration. Each of the blood samples was centrifuged to obtain the plasma, and the plasma glucose level (mg/dL) was measured with a glucose analyzer (Glucoloader GXT, A&T Corp.). The plasma glucose AUC (mg/dL min) in each mouse was calculated using the plasma glucose values at 5 minutes before and 15, 30, 60 and 120 minutes after the glucose administration. The arithmetic mean of the AUC value was calculated for each group and the percentage decrease in plasma glucose AUC (%) compared with the negative control group was calculated as an index of the efficacy.
`C[C@@H](Oc1ccc(C(=O)C2CC2)cc1)c1nc(-c2ccc(C(=O)NC3CCCC3O)c(F)c2)no1` (stereo in doubt) [Example 9, 4-(5-{(1R)-1-[4-(Cyclopropylcarbonyl)phenoxy]ethyl}-1,2,4-oxadiazol-3-yl)-2-fluoro-N-[(1R,2R)-2-hydroxycyclopentyl]benzamide]: the inhibition in vivo at 10 mg/kg fell in the range of 5 to 20%.
`C[C@@H](Oc1ccc(C(=O)C2CC2)cc1)c1nc(-c2ccc(C(=O)NC3CCCC3O)c(F)c2)no1` (stereo in doubt) [Example 11, 4-(5-{(1R)-1-[4-(Cyclopropylcarbonyl)phenoxy]ethyl}-1,2,4-oxadiazol-3-yl)-2-fluoro-N-[(1S,2S)-2-hydroxycyclopentyl]benzamide]: the inhibition in vivo at 10 mg/kg fell in the range of 5 to 20%.
In the case of `CC[C@@H](Oc1ccc(C(=O)C2CC2)cc1)c1nc(-c2ccc(C(=O)NC[C@H](O)CO)c(F)c2)no1` [Example 1, 4-(5-{(1R)-1-[4-(Cyclopropylcarbonyl)phenoxy]propyl}-1,2,4-oxadiazol-3-yl)-N-[(2S)-2,3-dihydroxypropyl]-2-fluorobenzamide], the inhibition in vivo at 10 mg/kg is greater than 20%.
In the case of `CC[C@@H](Oc1ccc(C(=O)C2CC2)cc1)c1nc(-c2ccc(C(=O)N[C@@H](CO)C(N)=O)c(F)c2)no1` [Example 2, N-[(1S)-2-Amino-1-(hydroxymethyl)-2-oxoethyl]-4-(5-{(1R)-1-[4-(cyclopropylcarbonyl)phenoxy]propyl}-1,2,4-oxadiazol-3-yl)-2-fluorobenzamide], the inhibition in vivo at 10 mg/kg is greater than 20%.
Take `CC[C@@H](Oc1ccc(C(=O)C2CC2)cc1)c1nc(-c2ccc(C(=O)N[C@H](C)CO)c(F)c2)no1` [Example 3, 4-(5-{(1R)-1-[4-(Cyclopropylcarbonyl)phenoxy]propyl}-1,2,4-oxadiazol-3-yl)-2-fluoro-N-[(1R)-2-hydroxy-1-methylethyl]benzamide]: the inhibition in vivo at 10 mg/kg was in the range of 5 to 20%.
To `CC[C@@H](Oc1ccc(C(=O)C2CC2)cc1)c1nc(-c2ccc(C(=O)N[C@@H](C)CO)c(F)c2)no1` [Example 4, 4-(5-{(1R)-1-[4-(Cyclopropylcarbonyl)phenoxy]propyl}-1,2,4-oxadiazol-3-yl)-2-fluoro-N-[(1S)-2-hydroxy-1-methylethyl]benzamide] belongs 5 to 20%; to `CC[C@@H](Oc1ccc(C(=O)C2CC2)cc1)c1nc(-c2ccc(C(=O)NC[C@@H](O)CO)c(F)c2)no1` [Example 5, 4-(5-{(1R)-1-[4-(Cyclopropylcarbonyl)phenoxy]propyl}-1,2,4-oxadiazol-3-yl)-N-[(2R)-2,3-dihydroxypropyl]-2-fluorobenzamide], 5 to 20%; to `CC[C@@H](Oc1ccc(C(=O)C2CC2)cc1)c1nc(-c2ccc(C(=O)NC(CO)CO)c(F)c2)no1` [Example 6, 4-(5-{(1R)-1-[4-(Cyclopropylcarbonyl)phenoxy]propyl}-1,2,4-oxadiazol-3-yl)-2-fluoro-N-[2-hydroxy-1-(hydroxymethyl)ethyl]benzamide], 5 to 20%.
As to `C[C@@H](Oc1ccc(C(=O)C2CC2)cc1)c1nc(-c2ccc(C(=O)NC(CO)CO)c(F)c2)no1` [Example 7, 4-(5-{(1R)-1-[4-(Cyclopropylcarbonyl)phenoxy]ethyl}-1,2,4-oxadiazol-3-yl)-2-fluoro-N-[2-hydroxy-1-(hydroxymethyl)ethyl]benzamide], the inhibition in vivo at 10 mg/kg was greater than 20%.
To `C[C@@H](CO)NC(=O)c1ccc(-c2noc([C@@H](C)Oc3ccc(C(=O)C4CC4)cc3)n2)cc1F` [Example 8, 4-(5-{(1R)-1-[4-(Cyclopropylcarbonyl)phenoxy]ethyl}-1,2,4-oxadiazol-3-yl)-2-fluoro-N-[(1S)-2-hydroxy-1-methylethyl]benzamide] belongs 5 to 20%; to `C[C@H](CO)NC(=O)c1ccc(-c2noc([C@@H](C)Oc3ccc(C(=O)C4CC4)cc3)n2)cc1F` [Example 10, 4-(5-{(1R)-1-[4-(Cyclopropylcarbonyl)phenoxy]ethyl}-1,2,4-oxadiazol-3-yl)-2-fluoro-N-[(1R)-2-hydroxy-1-methylethyl]benzamide], 5 to 20%.
`CC[C@@H](Oc1ccc(C(=O)C(C)(C)C)cc1)c1nc(-c2ccc(C(=O)NC(CO)CO)c(F)c2)no1` [Example 12, 4-(5-{(1R)-1-[4-(2,2-Dimethylpropanoyl)phenoxy]propyl}-1,2,4-oxadiazol-3-yl)-2-fluoro-N-[2-hydroxy-1-(hydroxymethyl)ethyl]benzamide]: the inhibition in vivo at 10 mg/kg was in the range of 5 to 20%.
Consider `CC[C@@H](Oc1ccc(C(=O)C2CCC2)cc1)c1nc(-c2ccc(C(=O)NC(CO)CO)c(F)c2)no1` [Example 13, 4-(5-{(1R)-1-[4-(Cyclobutylcarbonyl)phenoxy]propyl}-1,2,4-oxadiazol-3-yl)-2-fluoro-N-[2-hydroxy-1-(hydroxymethyl)ethyl]benzamide], for which the inhibition in vivo at 10 mg/kg was in the range of 5 to 20%.
On to `CC[C@@H](Oc1ccc(C(=O)C2(F)CC2)cc1)c1nc(-c2ccc(C(=O)NC(CO)CO)c(F)c2)no1` [Example 14, 2-Fluoro-4-{5-[(1R)-1-{4-[(1-fluorocyclopropyl)carbonyl]phenoxy}propyl]-1,2,4-oxadiazol-3-yl}-N-[2-hydroxy-1-(hydroxymethyl)ethyl]benzamide], for which the inhibition in vivo at 10 mg/kg fell in the range of 5 to 20%.
As for `CC[C@@H](Oc1ccc(C(=O)C(C)C)cc1)c1nc(-c2ccc(C(=O)N[C@H](C)CO)c(F)c2)no1` [Example 15, 2-Fluoro-N-[(1R)-2-hydroxy-1-methylethyl]-4-{5-[(1R)-1-(4-isobutyrylphenoxy)propyl]-1,2,4-oxadiazol-3-yl}benzamide], the inhibition in vivo at 10 mg/kg lay in the range of 5 to 20%.
As to `CC[C@@H](Oc1ccc(C(=O)C(C)C)cc1)c1nc(-c2ccc(C(=O)NC(CO)CO)c(F)c2)no1` [Example 16, 2-Fluoro-N-[2-hydroxy-1-(hydroxymethyl)ethyl]-4-{5-[(1R)-1-(isobutyrylphenoxy)propyl]-1,2,4-oxadiazol-3-yl}benzamide], the inhibition in vivo at 10 mg/kg is 5 to 20%.
Turning to `CC[C@@H](Oc1ccc(C(=O)C2CC2)cc1)c1nc(-c2ccc(C(=O)N[C@H](CO)CCO)c(F)c2)no1` [Example 17, 4-(5-{(1R)-1-[4-(Cyclopropylcarbonyl)phenoxy]propyl}-1,2,4-oxadiazol-3-yl)-2-fluoro-N-[(1S)-3-hydroxy-1-(hydroxymethyl)propyl]benzamide], the inhibition in vivo at 10 mg/kg is 5 to 20%.
For `CC[C@@H](Oc1ccc(C(=O)C2CC2)cc1)c1nc(-c2ccc(C(=O)N[C@H](C)[C@@H](O)CO)c(F)c2)no1` [Example 19, 4-(5-{(1R)-1-[4-(Cyclopropylcarbonyl)phenoxy]propyl}-1,2,4-oxadiazol-3-yl)-N-[(1R,2R)-2,3-dihydroxy-1-methylpropyl]-2-fluorobenzamide], the inhibition in vivo at 10 mg/kg was 5 to 20%.
With `C[C@@H](Oc1ccc(C(=O)C2CC2)cc1)c1nc(-c2ccc(C(=O)N[C@H](C)[C@@H](O)CO)c(F)c2)no1` [Example 23, 4-(5-{(1R)-1-[4-(Cyclopropylcarbonyl)phenoxy]ethyl}-1,2,4-oxadiazol-3-yl)-N-[(1R,2R)-2,3-dihydroxy-1-methylpropyl]-2-fluorobenzamide] the figure was greater than 20%.

These data come from patent US8722711B2, “Acylbenzene derivative” (Daiichi Sankyo Company, Limited, priority 2010, dated 2014).
